Measured values reported in patent publication US20110212968A1, “PHENETHYLAMIDE DERIVATIVES AND THEIR HETEROCYCLIC ANALOGUES” (priority 2008, published 2011).

Columns and labels:
human orexin-1 receptor = target: T1, human orexin-1 receptor (Homo sapiens, UniProt O43613); test: Intracellular calcium measurement (FLIPR Tetra), orexin receptor antagonistic activity, OX1; assay type: cell-based; conditions: CHO cells expressing human orexin-1 receptor, 3 nM orexin-A, conditions B
T1 construct: expressed in transfected cells; host or cells: CHO (Chinese hamster ovary) cells, kept under G418 selection
T1 sequence (O43613 1-425): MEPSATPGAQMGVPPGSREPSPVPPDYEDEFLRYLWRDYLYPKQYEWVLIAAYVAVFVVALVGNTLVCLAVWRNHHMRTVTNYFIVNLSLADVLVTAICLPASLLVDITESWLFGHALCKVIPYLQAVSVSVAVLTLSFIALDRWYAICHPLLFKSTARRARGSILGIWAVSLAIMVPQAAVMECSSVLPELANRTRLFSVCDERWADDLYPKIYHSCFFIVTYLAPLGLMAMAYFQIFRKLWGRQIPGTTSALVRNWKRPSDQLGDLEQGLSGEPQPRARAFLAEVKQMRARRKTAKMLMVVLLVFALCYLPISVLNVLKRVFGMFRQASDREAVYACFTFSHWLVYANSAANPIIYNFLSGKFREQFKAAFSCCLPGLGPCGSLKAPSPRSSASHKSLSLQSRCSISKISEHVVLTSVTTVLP
Description: (§1) The orexin receptor antagonistic activity of the compounds of formula (I) is determined in accordance with one of the following experimental methods.
(§2) Chinese hamster ovary (CHO) cells expressing the human orexin-1 receptor and the human orexin-2 receptor, respectively, are grown in culture medium (Ham F-12 with L-Glutamine) containing 300 μg/ml G418, 100 U/ml penicillin, 100 μg/ml streptomycin and 10% heat inactivated fetal calf serum (FCS). The cells are seeded at 20,000 cells/well into 384-well black clear bottom sterile plates (Greiner). The seeded plates are incubated overnight at 37° C. in 5% CO2.
(§3) Human orexin-A as an agonist is prepared as 1 mM stock solution in MeOH:water (1:1), diluted in HBSS containing 0.1% bovine serum albumin (BSA), NaHCO3: 0.375 g/l and 20 mM HEPES for use in the assay at a final concentration of 3 nM. Antagonists are prepared as 10 mM stock solution in DMSO, then diluted in 384-well plates, first in DMSO, then in HBSS containing 0.1% bovine serum albumin (BSA), NaHCO3: 0.375 g/l and 20 mM HEPES.
(§4) On the day of the assay, 50 μl of staining buffer (HBSS containing 1% FCS, 20 mM HEPES, NaHCO3: 0.375 g/l, 5 mM probenecid (Sigma) and 3 μM of the fluorescent calcium indicator fluo-4 AM (1 mM stock solution in DMSO, containing 10% pluronic) is added to each well.
(§5) The 384-well cell-plates are incubated for 50 min at 37° C. in 5% CO2 followed by equilibration at RT for 30-120 min before measurement.
(§6) Within the Fluorescent Imaging Plate Reader (FLIPR Tetra, Molecular Devices), antagonists are added to the plate in a volume of 10 μl/well, incubated for 10 min and finally 10 μl/well of agonist is added. Fluorescence is measured for each well at 1 second intervals, and the height of each fluorescence peak is compared to the height of the fluorescence peak induced by 3 nM orexin-A with vehicle in place of antagonist. For each antagonist, the IC50 value (the concentration of compound needed to inhibit 50% of the agonistic response) is determined and may be normalized using the obtained IC50 value of a on-plate reference compound (normalized values in Table 1 are indicated by an asterisk *). With the FLIPR Tetra, two different conditions (conditions A and conditions B) were used, differing in adjustment of pipetting speed and cell splitting regime. The calculated IC50 values of the compounds may fluctuate depending on the daily cellular assay performance. Fluctuations of this kind are known to those skilled in the art.

human orexin-2 receptor = target: T2, human orexin-2 receptor (Homo sapiens, UniProt O43614); test: Intracellular calcium measurement (FLIPR Tetra), orexin receptor antagonistic activity, OX2; assay type: cell-based; conditions: CHO cells expressing human orexin-2 receptor, 3 nM orexin-A, conditions B
T2 construct: expressed in transfected cells; host or cells: CHO (Chinese hamster ovary) cells, kept under G418 selection
T2 sequence (O43614 1-444): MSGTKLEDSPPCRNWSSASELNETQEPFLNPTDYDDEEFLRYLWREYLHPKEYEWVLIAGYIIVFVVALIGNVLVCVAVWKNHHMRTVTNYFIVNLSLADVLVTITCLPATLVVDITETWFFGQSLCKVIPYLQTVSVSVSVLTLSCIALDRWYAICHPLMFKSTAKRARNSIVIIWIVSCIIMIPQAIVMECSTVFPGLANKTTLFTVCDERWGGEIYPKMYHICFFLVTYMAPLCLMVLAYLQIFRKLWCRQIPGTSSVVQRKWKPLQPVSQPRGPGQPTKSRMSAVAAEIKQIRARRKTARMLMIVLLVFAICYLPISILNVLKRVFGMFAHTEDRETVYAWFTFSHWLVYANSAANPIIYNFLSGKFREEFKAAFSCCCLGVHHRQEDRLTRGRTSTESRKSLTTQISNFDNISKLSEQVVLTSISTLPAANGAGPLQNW
Description: as §1, §2, §3, §4, §5, §6

[1] = normalized (*) using IC50 of on-plate reference compound

IC50 (human orexin-1 receptor; [1]) [nM] | IC50 (human orexin-2 receptor; [1]) [nM] | IC50 (human orexin-1 receptor) [nM] | IC50 (human orexin-2 receptor) [nM] | SMILES
– | – | 447 | 22 | COc1ccc(CCN(CC2CC2)C(=O)c2nc(C)sc2-c2ccc(C)c(C)c2)cc1C [Example 202, 5-(3,4-Dimethyl-phenyl)-2-methyl-thiazole-4-carboxylic acid cyclopropylmethyl-[2-(4-methoxy-3-methyl-phenyl)-ethyl]-amide]
– | – | 538 | 12 | COc1cc(CCN(CC2CC2)C(=O)c2nc(C)sc2-c2ccc(C)c(C)c2)ccc1O [Example 207, 5-(3,4-Dimethyl-phenyl)-2-methyl-thiazole-4-carboxylic acid cyclopropylmethyl-[2-(4-hydroxy-3-methoxy-phenyl)-ethyl]-amide]
– | – | 139 | 31 | Cc1cccc(-c2sc(N)nc2C(=O)N(CCc2nc3ccc(Cl)cc3[nH]2)CC2CC2)c1 [Example 220, 2-Amino-5-m-tolyl-thiazole-4-carboxylic acid [2-(6-chloro-1H-benzoimidazol-2-yl)-ethyl]-cyclopropylmethyl-amide]
– | – | 243 | 201 | Cc1cccc(-c2sc(N)nc2C(=O)N(CCn2ccc3ccccc32)CC2CC2)c1 [Example 221, 2-Amino-5-m-tolyl-thiazole-4-carboxylic acid cyclopropylmethyl-(2-indol-1-yl-ethyl)-amide]
– | – | 5 | 135 | Cc1cccc(-c2sc(N)nc2C(=O)N(CCc2c[nH]c3ccc(Br)cc23)CC2CC2)c1 [Example 223, 2-Amino-5-m-tolyl-thiazole-4-carboxylic acid [2-(5-bromo-1H-indol-3-yl)-ethyl]-cyclopropylmethyl-amide]
– | – | 8 | 26 | Cc1cccc(-c2sc(N)nc2C(=O)N(CCc2c[nH]c3cc(Cl)ccc23)CC2CC2)c1 [Example 224, 2-Amino-5-m-tolyl-thiazole-4-carboxylic acid [2-(6-chloro-1H-indol-3-yl)-ethyl]-cyclopropylmethyl-amide]
– | – | 7 | 17 | COc1ccc2c(CCN(CC3CC3)C(=O)c3nc(N)sc3-c3cccc(C)c3)c[nH]c2c1 [Example 227, 2-Amino-5-m-tolyl-thiazole-4-carboxylic acid cyclopropylmethyl-[2-(6-methoxy-1H-indol-3-yl)-ethyl]-amide]
– | – | 9 | 18 | Cc1cccc(-c2sc(N)nc2C(=O)N(CCc2c[nH]c3c(C)cccc23)CC2CC2)c1 [Example 230, 2-Amino-5-m-tolyl-thiazole-4-carboxylic acid cyclopropylmethyl-[2-(7-methyl-1H-indol-3-yl)-ethyl]-amide]
– | – | 9 | 27 | Cc1cccc(-c2sc(N)nc2C(=O)N(CCc2c[nH]c3cccc(F)c23)CC2CC2)c1 [Example 231, 2-Amino-5-m-tolyl-thiazole-4-carboxylic acid cyclopropylmethyl-[2-(4-fluoro-1H-indol-3-yl)-ethyl]-amide]

Further lines, the compound ahead of its results:

SMILES | IC50 (human orexin-1 receptor; [1]) [nM] | IC50 (human orexin-2 receptor; [1]) [nM] | IC50 (human orexin-1 receptor) [nM] | IC50 (human orexin-2 receptor) [nM]
COc1ccc(CCN(CC2CC2)C(=O)c2nc(N)sc2-c2cccc(C)c2)cc1OC(F)F [Example 165, 2-Amino-5-m-tolyl-thiazole-4-carboxylic acid cyclopropylmethyl-[2-(3-difluoromethoxy-4-methoxy-phenyl)-ethyl]-amide] | 35 | 18 | – | –
Cc1cccc(-c2sc(N)nc2C(=O)N(CCc2ccc3ccccc3c2)CC2CC2)c1 [Example 167, 2-Amino-5-m-tolyl-thiazole-4-carboxylic acid cyclopropylmethyl-(2-naphthalen-2-yl-ethyl)-amide] | – | – | 171 | 45
CCC(Cc1ccc(OC)c(OC)c1)N(CC1CC1)C(=O)c1nc(N)sc1-c1cccc(C)c1 (stereo not drawn) [Example 169, 2-Amino-5-m-tolyl-thiazole-4-carboxylic acid cyclopropylmethyl-[1-(3,4-dimethoxy-benzyl)-propyl]-amide] | – | – | 25 | 27
COc1cc(CCN(CC2CC2)C(=O)c2nc(N)sc2-c2cccc(C)c2)cc(OC)c1OC(C)C [Example 173, 2-Amino-5-m-tolyl-thiazole-4-carboxylic acid cyclopropylmethyl-[2-(4-isopropoxy-3,5-dimethoxy-phenyl)-ethyl]-amide] | – | – | 147 | 12
Cc1cccc(-c2sc(N)nc2C(=O)N(CCc2csc(N)n2)CC2CC2)c1 [Example 177, 2-Amino-5-m-tolyl-thiazole-4-carboxylic acid [2-(2-amino-thiazol-4-yl)-ethyl]-cyclopropylmethyl-amide] | – | – | > 10000 | 954
CCc1nc(I)cn1CCN(CC1CC1)C(=O)c1nc(N)sc1-c1cccc(C)c1 [Example 178, 2-Amino-5-m-tolyl-thiazole-4-carboxylic acid cyclopropylmethyl-[2-(2-ethyl-4-iodo-imidazol-1-yl)-ethyl]-amide] | – | – | 739 | 943
Cc1nc(C(=O)N(CCc2ccccc2Cl)CC2CC2)c(-c2ccc(C)c(C)c2)s1 [Example 180, 5-(3,4-Dimethyl-phenyl)-2-methyl-thiazole-4-carboxylic acid [2-(2-chloro-phenyl)-ethyl]-cyclopropylmethyl-amide] | – | – | 4360 | 240
Cc1nc(C(=O)N(CCc2ccc(C(F)(F)F)cc2)CC2CC2)c(-c2ccc(C)c(C)c2)s1 [Example 192, 5-(3,4-Dimethyl-phenyl)-2-methyl-thiazole-4-carboxylic acid cyclopropylmethyl-[2-(4-trifluoromethyl-phenyl)-ethyl]-amide] | – | – | > 10000 | 719
Cc1nc(C(=O)N(CCc2ccc3c(c2)OCCO3)CC2CC2)c(-c2ccc(C)c(C)c2)s1 [Example 198, 5-(3,4-Dimethyl-phenyl)-2-methyl-thiazole-4-carboxylic acid cyclopropylmethyl-[2-(2,3-dihydro-benzo[1,4]dioxin-6-yl)-ethyl]-amide] | – | – | 1070 | 65
CCOc1ccc(CCN(CC2CC2)C(=O)c2nc(C)sc2-c2ccc(C)c(C)c2)cc1OC [Example 199, 5-(3,4-Dimethyl-phenyl)-2-methyl-thiazole-4-carboxylic acid cyclopropylmethyl-[2-(4-ethoxy-3-methoxy-phenyl)-ethyl]-amide] | – | – | 404 | 9
COc1ccc(CCN(CC2CC2)C(=O)c2nc(C)sc2-c2ccc(C)c(C)c2)cc1SC [Example 201, 5-(3,4-Dimethyl-phenyl)-2-methyl-thiazole-4-carboxylic acid cyclopropylmethyl-[2-(4-methoxy-3-methylsulfanyl-phenyl)-ethyl]-amide] | – | – | 21 | 15
COc1cc(CCN(CC2CC2)C(=O)c2nc(C)sc2-c2ccc(C)c(C)c2)c(OC)cc1I [Example 213, 5-(3,4-Dimethyl-phenyl)-2-methyl-thiazole-4-carboxylic acid cyclopropylmethyl-[2-(4-iodo-2,5-dimethoxy-phenyl)-ethyl]-amide] | – | – | 157 | 153
